Data as given in patent US6372446B1, “Method of selectively determining a fungal biomass” (Mycometer ApS, priority 1997, dated 2002).

Assays:
Test in all cases: Screening of fungi for enzyme activity with 4-methylumbelliferone-labelled substrates
Assay type in all cases: cell-based
[1] = test system: Aspergillus oryzae (AGM 11); settings: substrate 10 μM, 25° C., pH 5; for Enzyme activity: amount of released 4-methylumbelliferone: mineral medium; for Enzyme activity: amount of released 4-methylumbelliferone during 5 hours of incubation: vegetable juice medium
[2] = test system: Penicillium solitum (IBT 13771); settings: substrate 10 μM, 25° C., pH 5; for Enzyme activity: amount of released 4-methylumbelliferone: mineral medium; for Enzyme activity: amount of released 4-methylumbelliferone during 5 hours of incubation: vegetable juice medium
[3] = test system: Sodaria fimicola (AAS 17); settings: substrate 10 μM, 25° C., pH 5; for Enzyme activity: amount of released 4-methylumbelliferone: mineral medium; for Enzyme activity: amount of released 4-methylumbelliferone during 5 hours of incubation: vegetable juice medium
[4] = test system: Trametes versicolor (AGM 24); settings: substrate 10 μM, 25° C., pH 5; for Enzyme activity: amount of released 4-methylumbelliferone: mineral medium; for Enzyme activity: amount of released 4-methylumbelliferone during 5 hours of incubation: vegetable juice medium
[5] = test system: Eurotium sp. (AAS 36); settings: substrate 10 μM, 25° C., pH 5; for Enzyme activity: amount of released 4-methylumbelliferone: mineral medium; for Enzyme activity: amount of released 4-methylumbelliferone during 5 hours of incubation: vegetable juice medium
[6] = test system: Paecilomyces farinosus (AGM 5); settings: substrate 10 μM, 25° C., pH 5; for Enzyme activity: amount of released 4-methylumbelliferone: mineral medium; for Enzyme activity: amount of released 4-methylumbelliferone during 5 hours of incubation: vegetable juice medium
[7] = test system: Aspergillus versicolor (IBT 13738); settings: substrate 10 μM, 25° C., pH 5; for Enzyme activity: amount of released 4-methylumbelliferone: mineral medium; for Enzyme activity: amount of released 4-methylumbelliferone during 5 hours of incubation: vegetable juice medium
[8] = test system: Cladosporium herbarum (AGM 8); settings: substrate 10 μM, 25° C., pH 5; for Enzyme activity: amount of released 4-methylumbelliferone: mineral medium; for Enzyme activity: amount of released 4-methylumbelliferone during 5 hours of incubation: vegetable juice medium
[9] = test system: Schizophyllum commune (AGM 25); settings: substrate 10 μM, 25° C., pH 5; for Enzyme activity: amount of released 4-methylumbelliferone: mineral medium; for Enzyme activity: amount of released 4-methylumbelliferone during 5 hours of incubation: vegetable juice medium
[10] = test system: Penicillium commune (IBT 13713); settings: substrate 10 μM, 25° C., pH 5; for Enzyme activity: amount of released 4-methylumbelliferone: mineral medium; for Enzyme activity: amount of released 4-methylumbelliferone during 5 hours of incubation: vegetable juice medium
[11] = test system: Aureobasidium pullulans (QM 3092); settings: substrate 10 μM, 25° C., pH 5; for Enzyme activity: amount of released 4-methylumbelliferone during 5 hours of incubation: Aureobasidium pulluians (QM 3092), vegetable juice medium; for Enzyme activity: amount of released 4-methylumbelliferone: Aureobasidium pullulans (QM 3092), mineral medium
[12] = test system: Ascobolus crenulatus (AAS 1); settings: substrate 10 μM, 25° C., pH 5; for Enzyme activity: amount of released 4-methylumbelliferone: mineral medium; for Enzyme activity: amount of released 4-methylumbelliferone during 5 hours of incubation: vegetable juice medium
[13] = test system: Rhizomucor pusillus (AAS 300); settings: substrate 10 μM, 25° C., pH 5; for Enzyme activity: amount of released 4-methylumbelliferone: mineral medium; for Enzyme activity: amount of released 4-methylumbelliferone during 5 hours of incubation: vegetable juice medium
[14] = test system: Mucor racemosus (AAS 310); settings: substrate 10 μM, 25° C., pH 5; for Enzyme activity: amount of released 4-methylumbelliferone: mineral medium; for Enzyme activity: amount of released 4-methylumbelliferone during 5 hours of incubation: vegetable juice medium

| Structure (SMILES) | Enzyme activity: amount of released 4-methylumbelliferone [1] | Enzyme activity: amount of released 4-methylumbelliferone during 5 hours of incubation [1] | Enzyme activity: amount of released 4-methylumbelliferone [2] | Enzyme activity: amount of released 4-methylumbelliferone during 5 hours of incubation [2] | Enzyme activity: amount of released 4-methylumbelliferone [3] | Enzyme activity: amount of released 4-methylumbelliferone during 5 hours of incubation [3] | Enzyme activity: amount of released 4-methylumbelliferone [4] | Enzyme activity: amount of released 4-methylumbelliferone during 5 hours of incubation [4] | Enzyme activity: amount of released 4-methylumbelliferone [5] | Enzyme activity: amount of released 4-methylumbelliferone during 5 hours of incubation [5] | Enzyme activity: amount of released 4-methylumbelliferone [6] | Enzyme activity: amount of released 4-methylumbelliferone during 5 hours of incubation [6] | Enzyme activity: amount of released 4-methylumbelliferone [7] | Enzyme activity: amount of released 4-methylumbelliferone during 5 hours of incubation [7] | Enzyme activity: amount of released 4-methylumbelliferone [8] | Enzyme activity: amount of released 4-methylumbelliferone during 5 hours of incubation [8] | Enzyme activity: amount of released 4-methylumbelliferone [9] | Enzyme activity: amount of released 4-methylumbelliferone during 5 hours of incubation [9] | Enzyme activity: amount of released 4-methylumbelliferone [10] | Enzyme activity: amount of released 4-methylumbelliferone during 5 hours of incubation [10] | also measured |
| --- | --- | --- | --- | --- | --- | --- | --- | --- | --- | --- | --- | --- | --- | --- | --- | --- | --- | --- | --- | --- | --- |
| Cc1cc(=O)oc2cc(O[C@@H]3O[C@H](CO)[C@@H](O[C@@H]4O[C@H](CO)[C@H](O)[C@H](O)[C@H]4O)[C@H](O)[C@H]3O)ccc12 [substrate 8, 4-methylumbelliferyl β-D-lactoside] | 0 µmol | * (0.4 ≦ * < 1) | 0 µmol | 0 µmol | 0 µmol | ** (1 ≦ ** 2) | 0 µmol | 0 µmol | 0 µmol | 0 µmol | 0 µmol | 0 µmol | 0 µmol | 0 µmol | 0 µmol | 0 µmol | 0 µmol | ** (1 ≦ ** 2) | 0 µmol | 0 µmol | Enzyme activity: amount of released 4-methylumbelliferone during 5 hours of incubation [11]: 0 µmol; Enzyme activity: amount of released 4-methylumbelliferone [11]: 0 µmol; Enzyme activity: amount of released 4-methylumbelliferone [12]: 0 µmol; Enzyme activity: amount of released 4-methylumbelliferone during 5 hours of incubation [12]: 0 µmol; Enzyme activity: amount of released 4-methylumbelliferone [13]: 0 µmol; Enzyme activity: amount of released 4-methylumbelliferone during 5 hours of incubation [13]: * (0.4 ≦ * < 1); Enzyme activity: amount of released 4-methylumbelliferone [14]: 0 µmol; Enzyme activity: amount of released 4-methylumbelliferone during 5 hours of incubation [14]: 0 µmol |
| Cc1cc(=O)oc2cc(O[C@@H]3OC[C@@H](O)[C@H](O)[C@H]3O)ccc12 [substrate 9, 4-methylumbelliferyl β-D-xyloside] | 0 µmol | *** (2 ≦ ***) | 0 µmol | ** (1 ≦ ** 2) | 0 µmol | 0 µmol | 0 µmol | 0 µmol | 0 µmol | 0 µmol | 0 µmol | 0 µmol | 0 µmol | *** (2 ≦ ***) | 0 µmol | 0 µmol | 0 µmol | *** (2 ≦ ***) | 0 µmol | * (0.4 ≦ * < 1) | Enzyme activity: amount of released 4-methylumbelliferone during 5 hours of incubation [11]: *** (2 ≦ ***); Enzyme activity: amount of released 4-methylumbelliferone [11]: 0 µmol; Enzyme activity: amount of released 4-methylumbelliferone [12]: 0 µmol; Enzyme activity: amount of released 4-methylumbelliferone during 5 hours of incubation [12]: 0 µmol; Enzyme activity: amount of released 4-methylumbelliferone [13]: 0 µmol; Enzyme activity: amount of released 4-methylumbelliferone during 5 hours of incubation [13]: *** (2 ≦ ***); Enzyme activity: amount of released 4-methylumbelliferone [14]: 0 µmol; Enzyme activity: amount of released 4-methylumbelliferone during 5 hours of incubation [14]: 0 µmol |
| Cc1cc(=O)oc2cc(O[C@H]3O[C@H](C)[C@H](O)[C@H](O)[C@H]3O)ccc12 [substrate 10, 4-methylumbelliferyl α-D-fucoside] | 0 µmol | 0 µmol | 0 µmol | 0 µmol | 0 µmol | 0 µmol | 0 µmol | 0 µmol | 0 µmol | 0 µmol | 0 µmol | 0 µmol | 0 µmol | 0 µmol | 0 µmol | 0 µmol | 0 µmol | 0 µmol | 0 µmol | 0 µmol | Enzyme activity: amount of released 4-methylumbelliferone during 5 hours of incubation [11]: 0 µmol; Enzyme activity: amount of released 4-methylumbelliferone [11]: * (0.4 ≦ * < 1); Enzyme activity: amount of released 4-methylumbelliferone [12]: 0 µmol; Enzyme activity: amount of released 4-methylumbelliferone during 5 hours of incubation [12]: 0 µmol; Enzyme activity: amount of released 4-methylumbelliferone [13]: 0 µmol; Enzyme activity: amount of released 4-methylumbelliferone during 5 hours of incubation [13]: *** (2 ≦ ***); Enzyme activity: amount of released 4-methylumbelliferone [14]: 0 µmol; Enzyme activity: amount of released 4-methylumbelliferone during 5 hours of incubation [14]: ** (1 ≦ ** 2) |
| Cc1cc(=O)oc2cc(O[C@@H]3O[C@H](C)[C@H](O)[C@H](O)[C@H]3O)ccc12 [substrate 11, 4-methylumbelliferyl β-D-fucoside] | 0 µmol | 0 µmol | 0 µmol | 0 µmol | 0 µmol | 0 µmol | 0 µmol | 0 µmol | 0 µmol | 0 µmol | 0 µmol | 0 µmol | 0 µmol | 0 µmol | 0 µmol | 0 µmol | 0 µmol | 0 µmol | 0 µmol | 0 µmol | Enzyme activity: amount of released 4-methylumbelliferone during 5 hours of incubation [11]: 0 µmol; Enzyme activity: amount of released 4-methylumbelliferone [11]: 0 µmol; Enzyme activity: amount of released 4-methylumbelliferone [12]: 0 µmol; Enzyme activity: amount of released 4-methylumbelliferone during 5 hours of incubation [12]: 0 µmol; Enzyme activity: amount of released 4-methylumbelliferone [13]: 0 µmol; Enzyme activity: amount of released 4-methylumbelliferone during 5 hours of incubation [13]: 0 µmol; Enzyme activity: amount of released 4-methylumbelliferone [14]: 0 µmol; Enzyme activity: amount of released 4-methylumbelliferone during 5 hours of incubation [14]: 0 µmol |
